Laboratory results: the METLIN SMRT retention time set (Domingo-Almenara et al. 2019)

Test: gradient 5% acetonitrile 3 min, to 50% in 2 min, to 85% in 15 min, held 3 min, 100 µL/min
Conditions: column: Zorbax Extend-C18 2.1 x 50 mm; eluents: water / acetonitrile, 0.1% formic acid
Outline: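 Standards, all pure, were combined into mixtures of ~100 molecules and run at 100 μL/min on a Zorbax Extend-C18 column (2.1 × 50 mm, 1.8 μm) with water and acetonitrile, each containing 0.1% formic acid. A coupled quadrupole time-of-flight mass spectrometer operated in positive and negative ionization mode. Retention time values come from computationally picked adduct peaks, each inspected manually.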

Row | RP-LC retention time | Structure (SMILES)
1 | 605 s | COc1ccc(Nc2c(C(=O)N3CCCCC3)cnc3nc(C)ccc23)cc1
2 | 862 s | O=C(NC1CC1)c1ccc(OCC2CCCN(C(=O)c3ccc(F)c(Cl)c3)C2)cc1 (centres undefined)
3 | 561 s | COCc1nnc2n1CCC(NC(=O)c1ccoc1)CC2 (centres undefined)
4 | 924 s | CCc1ccccc1NC(=O)N1CCc2nc(-c3ccccc3)ncc2C1
5 | 587 s | CC(C)CN1CCN(C(=O)c2ccc(-c3ccnc(N4CCCC4)n3)cc2)CC1
6 | 760 s | CCCN(C)C(=O)c1ccc(-c2nnc3ccc(NC(=O)C4CCC4)cn23)cc1
7 | 937 s | COc1ccc(-c2noc(C3CCCN3C(=O)c3cccc(OC)c3)n2)cc1 (centres undefined)
8 | 914 s | O=S(=O)(NCC1CCCO1)c1ccc(Cl)c(-c2nnc(-c3ccccc3)o2)c1 (centres undefined)
9 | 1020 s | Cc1nn(Cc2nc(-c3ccc(NC(=O)C4CCCCC4)cc3)oc2C)c(C)c1C
10 | 977 s | O=C(NCCc1cccs1)c1nnc(-c2ccc(S(=O)(=O)N3CCCCC3)cc2)o1
11 | 870 s | CCC1CCCCN1C(=O)c1ccc(-c2nnc3ccc(NC(=O)C4CCC4)cn23)cc1 (centres undefined)
12 | 734 s | CN1CCCc2cc(C(CNC(=O)C(=O)NCc3ccc4c(c3)OCO4)N3CCCCC3)ccc21 (centres undefined)
13 | 661 s | O=C(Nc1ccc(-c2nnc3n2CCCC3)cc1)c1ccc2c(c1)OCO2
14 | 580 s | COc1cccc(CNC(=O)Nc2ccc3nc(N4CCN(C)CC4)cc(C)c3c2)c1
15 | 624 s | Fc1ccc(F)c(-c2nc(-c3ccc4c(c3)ncn4CCN3CCCC3)no2)c1
16 | 771 s | Cc1cc(SCC(=O)N2CCCc3ccccc32)ncn1
17 | 903 s | Cn1nc(-c2nnc(-c3ccc(F)cc3)o2)c2c1CCN(S(=O)(=O)c1ccc(F)cc1)C2
18 | 952 s | Cc1ccc(Cn2c(CN3CCC(C(=O)NCCC4=CCCCC4)CC3)cc3ccccc32)cc1
19 | 946 s | COc1ccc(-c2nc(C3CC(=O)N(c4ccc(C)cc4)C3)no2)cn1 (centres undefined)
20 | 728 s | Cc1ccc(CNC(=O)Cn2cnc3nc4c(cc3c2=O)CCCC4)cc1
21 | 676 s | CC(=O)N1CCc2cc(-c3ccc(C(=O)NC4CCS(=O)(=O)C4)cc3)ccc21 (centres undefined)
22 | 819 s | CCc1nc2c(NC(=O)c3ccc(OC)cc3)cccn2n1
23 | 750 s | Cc1ccccc1-c1noc(-c2cccn(CC(=O)N3CCCC3)c2=O)n1
24 | 672 s | Cc1ccc(NC(=O)N2CCC(n3cnnc3C3CC3)C2)cc1Cl (centres undefined)
25 | 1130 s | Cc1cccc(NC(=O)CSc2cc(N3CCN(c4ccccc4F)CC3)ncn2)c1C
26 | 609 s | COc1ccc(C(F)(F)F)cc1NC(=O)C1CCCN(c2ccc(-n3ccnc3)nn2)C1 (centres undefined)
27 | 815 s | CCOc1cc(=O)n2c(c1C(=O)Nc1ccc3c(c1)CCC3)CCCC2
28 | 740 s | CCn1c(N2CCC(C(=O)NCc3ccc4c(c3)OCO4)CC2)cc(=O)n(C)c1=O
29 | 883 s | CCOc1ccc(NS(=O)(=O)c2cc(C(=O)N3CCN(c4ccccc4)CC3)n[nH]2)cc1

The remaining lines, values behind:

Row | Structure (SMILES) | RP-LC retention time
30 | CCOC(=O)c1sc(NC(=O)CCCC(=O)O)nc1-c1ccccc1 | 770 s
31 | COc1ccccc1-c1cc(C(F)(F)F)n2ncc(C(=O)OCCN3CCCC3=O)c2n1 | 894 s
32 | CCC(C)NC(=O)CCCn1c(=O)c2cccn2c2ccc(Br)cc21 (centres undefined) | 894 s
33 | O=C(Cc1csc(NC(=O)C2CC2)n1)NCc1ccccn1 | 519 s
34 | O=C(CCc1csc(NC(=O)NC2CCCCC2)n1)NCc1cccs1 | 711 s
35 | COc1cc(OC)cc(N2C(=O)CC(c3ccc(OC)c(OC)c3)CC2=O)c1 | 833 s
36 | CCc1nn2c(CNS(=O)(=O)Cc3cccc(Cl)c3)c(-c3ccccc3)nc2s1 | 1010 s
37 | O=C1CN(S(=O)(=O)c2cccnc2)C2(CCCC2)CN1CC1CC1 | 746 s
38 | C=CCNC(=O)Cc1c(C)n(CC=C)c2nc(-c3ccccc3)nn2c1=O | 740 s
39 | COc1ccc(Cl)cc1NS(=O)(=O)c1c[nH]c2ncccc12 | 763 s
40 | COc1cccc(OC)c1C(=O)Nc1nnc(SCc2nnc(-c3ccccc3C)o2)s1 | 888 s
41 | O=c1c2ccccc2nc2n1CCC2O (centres undefined) | 567 s
42 | CCc1nc2cc(N3CCC(C(=O)NCCN4CCCCC4)CC3)cnc2nc1CC | 580 s
43 | CCc1ccc(Oc2nccnc2N2CCC(C(=O)N3CCN(c4ccccn4)CC3)CC2)cc1 | 734 s
44 | COc1ccc(CNC2=NCCNC23CCN(S(=O)(=O)c2ccc(C)cc2C)CC3)cc1 | 775 s
45 | COc1ccc(-c2c(C)noc2NC(C)=O)cc1S(=O)(=O)Nc1ccccc1 | 721 s
46 | O=C(c1csc(-c2ccc(N3CCCCC3)nc2)n1)N1CCN(c2ccccn2)CC1 | 600 s
47 | Cc1cccc(-c2nc(Cn3nnc(-c4nc(-c5ccccc5Br)no4)c3C)c(C)o2)c1 | 1310 s
48 | COCCN1CCC(N2CCN(S(=O)(=O)c3ccc(F)cc3F)CC2)C1=O (centres undefined) | 570 s
49 | O=C(Nc1cccc(F)c1)c1cc(C2CC2)on1 | 956 s

Row | Structure (SMILES) | RP-LC retention time
50 | COc1ccccc1CCC(=O)N1CCCn2nc(-c3cccs3)cc2C1 | 702 s
51 | CCOCCCNC(=O)Cn1ncc2c(N3CCN(c4ccccn4)CC3)ncnc21 | 565 s
52 | CCn1cc(CCNS(=O)(=O)c2ccc(C)cc2)c2cccnc21 | 786 s
53 | CC(C)c1nnc(-c2cccnc2N2CCN(C(=O)c3ccoc3)CC2)o1 | 725 s
54 | Cc1ccsc1CN1CCc2[nH]nc(C(=O)N3CCOCC3)c2C1 | 568 s
55 | CC(C)NC(=O)CCc1c(-c2ccccc2)nc2ccccn12 | 595 s
56 | COc1ccc(C)cc1NC(=O)N1CCC(c2cc(N)on2)CC1 | 720 s
57 | O=S(=O)(c1ccc2nncn2c1)N(Cc1ccc(F)cc1)c1ccccc1 | 846 s
58 | COCCNC(=O)CN1c2ccccc2NC2=C(C(=O)CC(C)(C)C2)C1c1ccc(OC)cc1 (centres undefined) | 743 s
59 | CCCc1noc(-c2ccnc(-n3cnc(C(=O)N4CCCC(C)C4)c3)c2)n1 (centres undefined) | 944 s
60 | O=C(NC1CCCC1)c1nc(C(=O)N2CCN(c3ccccc3)CC2)cs1 | 897 s
61 | N#CCn1cccc1-c1nc(-c2cccnc2)no1 | 776 s
62 | COc1cccc(COc2coc(C(=O)Nc3nnc(C)s3)cc2=O)c1 | 660 s
63 | CCCCC(=O)N1C[C@H](c2nc(-c3ccccc3)no2)[C@@H](C)C1 | 971 s
64 | Cc1ncccc1C(=O)N1[C@H]2CC[C@@H]1c1cnc(-c3ccc(F)cc3)nc1C2 | 705 s
65 | COc1ccc(CCC(=O)N2CCCC2c2cc(C)on2)cc1 (centres undefined) | 775 s
66 | CSc1ccc(-c2nc3ccccn3c2Nc2ccccc2C)cc1 | 794 s
67 | CCn1ccc(-c2nc(CCS(=O)(=O)c3ccccc3)no2)n1 | 768 s
68 | Cc1cc(S(=O)(=O)NCC2CCCO2)cc([N+](=O)[O-])c1C (centres undefined) | 778 s
69 | O=c1c2sccc2n(Cc2nc(-c3cccc(Br)c3)no2)c(=O)n1-c1ccc(F)cc1 | 1080 s

Row | Structure (SMILES) | RP-LC retention time
70 | Ic1ccc(N2CCN(Cc3c[nH]c4ncccc34)CC2)cc1 | 727 s
71 | CCSc1nc2ccc(NS(=O)(=O)Cc3cc(C)ccc3C)cc2s1 | 1150 s
72 | CCN(CC)C(=O)N1CC(Oc2ccc(-c3noc(COC)n3)cc2)C1 | 845 s
73 | COc1ccc2c(n1)Sc1nc3ccccc3nc1N2 | 1040 s
74 | COC(=O)c1cccc(NC(=O)c2cnc3c(c2)c(=O)n(C)c(=O)n3-c2ccccc2)c1 | 874 s
75 | CCn1c(N2CCCC(C(=O)NCc3ccc(OC)cc3OC)C2)cc(=O)n(C)c1=O (centres undefined) | 752 s
76 | Cc1cc(C)c2c(=O)n(Cc3nc(-c4ccccc4)oc3C)c(=O)n(Cc3ccco3)c2n1 | 1380 s
77 | COc1ccc(C2(C(=O)N3CCC(Cc4ccc(COc5ccncc5)cc4)CC3)CC2)cc1 | 750 s
78 | CCn1ccc2sc(C)c(C(=O)NC(C)c3ccc(F)cc3)c2c1=O (centres undefined) | 808 s
79 | CCOc1ccc(S(=O)(=O)N2CCC(C(=O)NCCOC)CC2)cc1C | 783 s
80 | COc1ccc2[nH]c(C(=O)N3CCN(C(=O)Cc4cccs4)CC3)cc2c1 | 758 s
81 | CC(C)Cn1cc(CCNS(=O)(=O)Cc2ccc(Cl)cc2)c2cccnc21 | 986 s
82 | O=C(Nc1cccn2ncnc12)c1ccccc1C(F)(F)F | 765 s
83 | CCn1cc(CCNC(=O)c2ccccc2Br)c2cccnc21 | 700 s
84 | O=C(c1ccccc1)N1CCN(c2nnc3ccccn23)CC1 | 608 s
85 | CCOC(=O)Cc1csc(NC(=O)c2csc(Nc3cccc(Cl)c3)n2)n1 | 952 s
86 | O=C(CN1C(=O)C2CCCCN2c2ccc(S(=O)(=O)N3CCCCC3)cc21)NCc1ccccc1 (centres undefined) | 988 s
87 | CCOC(=O)c1nc(N2CCN(c3cccc(C(F)(F)F)c3)CC2)c2ccccc2n1 | 1070 s
88 | COc1ccc(N2CCOCC2)c2sc(NC(=O)N3CCC(C)(O)CC3)nc12 | 732 s
89 | C[C@@H]1c2ccccc2CCN1C(=O)Cc1ccccc1F | 950 s
